Results on two compounds are retold here after US12226393B2, “Neuroprotective compounds for amyotrophic lateral sclerosis” (THE JOHNS HOPKINS UNIVERSITY, priority 2019, dated 2025).

“Also recorded” adds a separate entry of the source. Like-named read-outs stand apart in the source and are kept apart here.

Data set [1] deals with FALS and SALS hiPSC-A/MN co-culture. In words: hiPSC-astrocyte / hiPSC-motor neuron direct co-culture, neuron survival by immunostaining. Format: cell-based, human. The following applies: for neuroprotection of control hiPSC-MN in co-culture with ALS hiPSC-A: 3 days. The method, then: (§1) Human iPSC-astrocyte and hiPSC-motor neuron co-culture: Human iPSC-A form healthy subjects and ALS patients were cultured for 86 DIV and then plated in 24 well plates on glass cover-slips at a density of 20,000 cells/well. Four days later, hiPSC-MN from control samples, cultured for 60 DIV prior to use, were plated on the top of astrocytes at a density of 50,000 cells/well. This was considered day 1 of co-culture. Co-cultures were maintained in motor neuronal medium enriched with 1% FBS for a total of 14 days before fixing for immunocytochemistry. Co-culture medium was changed every third day with half medium exchange. For pharmacological assays on Cx43 HC, we used GAP19 (Tocris, 53533) at a concentration of 340 μM^21,50 and tonabersat (SB-220453) at concentrations of 1 μM, 10 μM and 100 μM^7,8 (Millipore Sigma, SML1354).

The next data set deals with Cx43 HC (Homo sapiens, UniProt P17302). The following applies: cited from earlier work.
For data set [2], the system named is control hiPSC-A/-MN co-cultures. In words: Multielectrode array (MEA) recording of control hiPSC-A/-MN co-cultures. Type of data set: cell-based, human. The following applies: for hiPSC-Neuron spike activity: co-cultured 1 week. From the text:
(§2) Multi-electrode array culture and recordings: Multi-electrode array (MEA) plates (MultiChannel Systems, 60MEA200/30iR-Ti-gr,) with 60 electrodes, including 59 active and 1 reference, and a MEA2100 (MultiChannel Systems) platform were used for the recording of neuronal activity in hiPSC-A/-MN co-cultures as we have previously described^50. Briefly, hiPSC-A from healthy subjects and ALS patients and hiPSC-MN from a single control line were serially co-cultured at densities of 100,000 cells/plate and 500,000 cells/plate, respectively. We analyzed the following electrophysiological parameters: spike rate, burst rate, and percentage of spiking and bursting electrodes (on the overall 59 recording electrodes). The recording of the baseline activity of MEA plates was performed every 3 days over 1-minute period for 2 weeks after initial plating. For pharmacological assays, we performed 5 minutes recordings to capture slower electrophysiological effects of HC blockers 36: baseline MEA activity for 1 minute, activity for 1 minute after 100 μl medium exchange with drug vehicle, and activity for 3 minutes after the exchange of 100 μl of medium containing the compound of interest and the drug vehicle. For analysis purposes, we considered only the electrodes with spike rate >0. Spiking and bursting activity is expressed as the mean of individual MEA plates.

The conditions of data set [3]: in vivo; cited from earlier work.
For another data set, the system named is hiPSC-MN alone. The data set is described as follows: MEA recording of hiPSC-MN alone in culture. Type of data set: cell-based, human. The settings on record: 10 μM.
In data set [4] the target is T1, connexin 43 (Cx43) gap junctions (Homo sapiens, UniProt P17302).
T1 construct: host or cells: astrocyte cancer cell co-cultures
The settings on record: cited from earlier work.

For data set [5] the following is noted: in vivo, cited from earlier work.
The test system of data set [6] is transwell co-culture of FALS and SALS hiPSC-A with hiPSC-MN. The data set is described as follows: hiPSC-astrocyte / hiPSC-motor neuron transwell co-culture, neuron survival by immunostaining. Type of data set: cell-based, human. As to the method: Human iPSC-astrocyte and hiPSC-motor neuron co-culture in a transwell system: Human iPSC-MN from control samples were cultured for 56 DIV and then plated in 12 well plates on glass coverslips at a density of 250,000 cells/well. […] Four days later, the inserts with 90 DIV astrocytes were placed on the top of 12-well plates with 60 DIV motor neurons at the bottom. This was considered day 1 of “transwell” co-cultures. Half medium exchanges were performed from both the top and the bottom compartments. Transwell co-culture were otherwise maintained as conventional co-cultures and neurons on glass coverslips were fixed for immunocytochemistry after 14 days.

For data set [7] the following is noted: cited from earlier work; for tolerability / safety: humans, phase II clinical trials.
The subject of the next data set is control hiPSC-MN. In words: Survival of control hiPSC-MN alone or co-cultured with control hiPSC-A. Type of data set: cell-based, human. The settings on record: several concentrations; hiPSC-MN alone or in co-culture with control hiPSC-A. The method, then: Human iPSC-motor neuron culture: Briefly, NPC differentiated with the aforementioned spinal cord patterning protocol were cultured for up to 60 DIV with “neuronal differentiating medium”^58,59. To prevent astrocyte overproliferation, neuronal cultures were treated once with 0.02 μM cytosine arabinoside (Ara-C) (Millipore Sigma) for 48 h. While the majority of these cells are Tuj1+/ChAT+, consistent with a spinal motor neuronal phenotype, a smaller subset of neurons (Tuj1+/ChAT−) is also present and consists mainly of GABAergic interneurons^58.
as §1

Another data set has as its system brain metastases. The settings on record: xenograft and immunocompetent models; cited from earlier work.
The conditions of data set [8]: in vivo studies; cited from earlier work.
For data set [9], the system named is ALS hiPSC-A / control hiPSC-MN co-cultures. The data set is described as follows: MEA recording of ALS hiPSC-A co-cultured with control hiPSC-MN. Format: cell-based, human. The settings on record: for ALS astrocyte-mediated hyperexcitability (neuronal spiking and bursting activity): 10 μM, within 5 minutes.
From the text: as §2

Data set [10] has as its system rodent SOD1^G93A astrocyte-induced toxicity. In words: ALS astrocyte-induced MN toxicity, rodent model of ALS. Format: cell-based.
The subject of the next data set is gap junction channels. The settings on record: cited from earlier work.

Sequence of Cx43 HC (P17302 2-382 limits assumed): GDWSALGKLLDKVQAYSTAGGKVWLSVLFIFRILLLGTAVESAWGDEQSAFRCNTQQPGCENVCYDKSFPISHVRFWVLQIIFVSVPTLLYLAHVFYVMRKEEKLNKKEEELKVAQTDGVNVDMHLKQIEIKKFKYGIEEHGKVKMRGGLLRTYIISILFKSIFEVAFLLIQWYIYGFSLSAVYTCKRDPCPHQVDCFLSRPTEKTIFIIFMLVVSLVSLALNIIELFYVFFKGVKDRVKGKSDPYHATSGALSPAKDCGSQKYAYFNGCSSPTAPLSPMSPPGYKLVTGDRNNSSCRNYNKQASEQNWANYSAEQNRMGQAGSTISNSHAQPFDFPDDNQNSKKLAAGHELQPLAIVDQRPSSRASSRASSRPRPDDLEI
T1 sequence (P17302 2-382 limits assumed, species assumed): as the sequence (P17302 2-382 limits assumed) above

For the compound `CC(=O)c1ccc2c(c1)[C@H](NC(=O)c1ccc(F)c(Cl)c1)[C@H](O)C(C)(C)O2` [tonabersat, N-[(3S,4S)-6-acetyl-3-hydroxy-2,2-dimethyl-3,4-dihydro-2H-1-benzopyran-4-yl]-3-chloro-4-fluorobenzamide], the “rescue of ChAT MNs” value is “rescues ChAT MNs” in data set [1] (1 μM, direct co-culture, 14 days) and “rescues ChAT MNs” in data set [1] (10 μM, direct co-culture, 14 days). Moreover, the “neuroprotection of control hiPSC-MN in co-culture with ALS hiPSC-A” value is listed as “neuroprotection of control hiPSC-MN; also recorded: Significant neuroprotection” in data set [1] (10 μM, early (day 5 to day 8 of co-culture)) and “This protection did not occur; also recorded: Significant neuroprotection was appreciated after early but not late exposure” in [1] (10 μM, late (day 11 to day 14 of co-culture)). Besides, the “neuroprotection of hiPSC-MN” value in data set [1] (100 μM, direct co-culture, 14 days) is on record as “not neuroprotective”. In addition, the “protection of non-MN populations (ChAT− and Isl1− neurons)” value in data set [1] (direct co-culture with FALS and SALS hiPSC-A) is reported as “protective to non-MN populations; also recorded: can be rescued with tonabersat”. For the same compound, in data set [1] (direct co-culture, 1 μM, 10 μM and 100 μM, 14 day incubation), the “neuroprotection of hiPSC-MN (ChAT, Isl-1) from ALS astrocyte-mediated death” value is “can protect MNs from ALS astrocyte-induced excitotoxicity; also recorded: protects hiPSC-MN from ALS astrocyte-mediated death in a dose-dependent manner; also recorded: dose-dependent neuroprotection”. The “concentrations that specifically block Cx43 HC” value at Cx43 HC (low concentrations) is 1 to 10 µM. In addition, the “neuronal spiking and bursting activity” value is “less effective” in [2] (1 μM, 5 minutes after application, compared with 10 μM); “significantly reduced neuronal spiking and bursting activity” in data set [2] (10 μM, within 5 minutes of application). The hiPSC-Neuron spike activity result in [2] (10 μM, 1 minute after application) is “reduction of hiPSC-Neuron spike activity”; in [2] (100 μM, 1 minute after application) it was “reduction of hiPSC-Neuron spike activity”. In data set [2] (hiPSC-Astro/Neuron co-culture), the “hiPSC-Neuron spike rate, burst rate, number of electrodes firing and bursting” value was “reduced hiPSC-Neuron spike rate, burst rate, number of electrodes firing and bursting”. Also, in [2] (hiPSC-Astro/Neuron co-culture, 1 and 5 minutes after application), the hiPSC-Neuron firing entry is “reduced hiPSC-Neuron firing”. The “neurogenic extravasation of plasma protein in the meninges” value in data set [3] is recorded as “reduce neurogenic extravasation of plasma protein in the meninges”. Further, the neuronal electrophysiological activity entry in the data set on hiPSC-MN alone is reported as “did not observe any change in neuronal electrophysiological activity; also recorded: does not result in an alteration of electrophysiological activity”. In addition, the “release of IFNα and TNF” value in [4] (astrocyte cancer cell co-cultures) is “inhibited”. In addition, the “dye transfer from astrocytes to cancer cells” value in data set [4] was “inhibited dye transfer from astrocytes to cancer cells”. Moreover, the cortical spreading depression result in data set [5] was “inhibitory effects on cortical spreading depression”; in [5] (listed as Tonabersat) it was “antagonize cortical spreading depression”. In addition, in [6] (transwell co-culture, 14 days), the “neuroprotection of hiPSC-MN (ChAT+, Isl1+)” value was “neuroprotective effect of tonabersat was also seen; also recorded: confirms dose-dependent neuroprotection”. Besides, the “rescue of non-motor neuron cell death” value in data set [6] (transwell culture with FALS and SALS hiPSC-A) is reported as “can be rescued with tonabersat”. The tolerability / safety entry was “well tolerated and safe” in data set [7]; “excellent safety profile” in data set [7] (listed as Tonabersat). In addition, in data set [7] (study by Hauge and colleagues), the “effect on attacks of migraine aura” value is “preventive effect”. The “efficacy on non-aura attacks” value in data set [7] (study by Hauge and colleagues) is reported as “no efficacy”. Also, in the data set on control hiPSC-MN, the “hiPSC-MN survival (ChAT+ and Isl1+)” value is “did not have any effect on hiPSC-MN survival; also recorded: no effect on ChAT+ and Isl1+ control hiPSC-MN survival”. Further, the brain metastases entry in the data set on brain metastases is “inhibited brain metastases”. The seizures result in data set [8] is listed as “inhibitory effects”. For the same compound, in data set [9] (10 μM acute treatment, day 6 of co-culture), the “levels of spiking and bursting activity after treatment versus untreated control co-cultures” value is recorded as “not significantly different”. For the same compound, the “ALS astrocyte-mediated hyperexcitability (neuronal spiking and bursting activity)” value is recorded as “significantly reduced” in data set [9] (day 6 of co-culture) and “significant inhibition” in [9] (day 6 of co-culture, listed as Tonabersat). In addition, in data set [9] (MEA, co-cultured 1 week, 1 minute after application), the “concentration necessary to reduce ALS hiPSC-astrocyte mediated neuron spike activity” value amounted to 100 µM.
In the case of “KQIEIKKFK [Gap19, nonapeptide derived from the cytoplasmic loop of Cx43]”, in [10], the “neuroprotection against ALS astrocyte-induced MN toxicity” value is “can be neuroprotective”. For the same compound, in the data set with Cx43 HC, the “inhibition of astroglial Cx43 hemichannels” value is reported as “inhibits astroglial Cx43 hemichannels in a dose-dependent manner”. In addition, in [2] (hiPSC-Astro/Neuron co-culture, 1 minute after application), the neuronal firing entry is listed as “reduced neuronal firing”. In the data set with gap junction channels, the “effect on gap junction channels” value is on record as “without affecting gap junction channels”.
